Reference: US12668803B2, “Glypican-3-specific modified aptamer and use thereof” (APTAMER SCIENCES INC., priority 2019, dated 2026)

What was measured:
Huh-7 cells = experiment: Cellular internalization analysis (microscopy, lysotracker/DAPI); assay type: cell-based
Procedure: 5 aptamer libraries prepared by truncating the 12-10 aptamer at various lengths [12-12 (35-mer), 12-11 (29-mer), 12-13 (24-mer), 12-14 (23-mer), and 12-15 (18-mer)] were subjected to cellular internalization analysis. In detail, a 6-well plate was prepared, and a round cover glass was placed in the 6-well plate. Huh-7 cells were cultured in the 6-well plate according to the method of Example 1-3. 5 μM of the aptamer stock was mixed with 5×SB18 buffer to prepare the aptamer at a concentration of 4 μM, and heated at 95° C. for 5 min, and then cooled at room temperature for 15 min or more. The next day, the medium was removed from the cultured cells, and a serum-free medium was added thereto, and cultured under conditions of 37° C. and 5% CO2 for 1 hr. The serum-free medium was removed, and then the cells were washed with 2 mL of 1×PBS. KRPH buffer was added, and cultured under conditions of 37° C. and 5% CO2 for 1 hr. 4 μM aptamer was diluted to 25 nM, and then cultured under conditions of 37° C. and 5% CO2 for 1 hr or 4 hr. Washing was repeated three times with 2 mL of 1×PBS. Washing was performed in a shaker at room temperature for 10 min while blocking the light. Thereafter, the cells were fixed by treatment with 4% paraformaldehyde at 4° C. for 10 min. Washing was repeated three times with 2 mL of 1×PBS. A permeabilization solution (0.2% Triton X-100 in 1×PBS) was added, followed by incubation at room temperature for 15 min. Washing was repeated three times with 2 mL of 1×PBS. A blocking solution (3% BSA, 1×PBS) was added, followed by incubation under conditions of 37° C. and 5% CO2 for 20 min. Washing was performed once with 2 mL of 1×PBS. Treatment with a blocking solution containing 150 nM lysotracker was performed, followed by incubation under conditions of 37° C. and 5% CO2 for 1 hr. Washing was repeated three times with 2 mL of 1×PBS, and staining with 4′,6-diamidino-2-phenylindole (DAPI) was performed. The cover glass was carefully removed and […]. […]

[1] = tested on: squamous cell carcinoma cell A431; experiment: Cytotoxicity (CCK-8) of 12-12 G(3); assay type: cell-based
Procedure: (§1) In detail, HepG2, Hep3B, and A431 cells (ATCC, Rockville, MD, USA) were each seeded in a 96-well plate at a density of 1×10^4/mL and cultured using a DMEM (Gibco, Grand Island, NY, USA) medium containing 10% FBS (Gibco, Grand Island, NY, USA) and 1% antibiotics (penicillin/streptomycin) under conditions of 5% CO2 and 37° C. The next day, the aptamer stock (100 μM) was mixed with 5×SB18 buffer to prepare the stock at a concentration of 80 μM, and heated at 95° C. for 5 min, and then cooled at room temperature for 15 min or more. The medium was removed from the cultured cells, and 100 μL of a serum-free medium was added thereto, and cultured under conditions of 37° C. and 5% CO2 for 1 hr. The serum-free medium was removed, and then the cells were washed with 100 μL of 1×PBS. 100 μL of KRPH buffer was added, and cultured under conditions of 37° C. and 5% CO2 for 1 hr. The aptamer was diluted with KRPH buffer to 2-fold of the desired concentration, and added to a 96-well plate at 1× concentration, and cultured under conditions of 37° C. and 5% CO2 for 4 hr. After treatment with the aptamer, the KRPH buffer was removed, and then 100 μL of culture medium was added and cultured under conditions of 37° C. and 5% CO2 for 6 days. 6 days later, 10 μL of a CCK-8 kit solution was added to each well, and then cultured under conditions of 37° C. and 5% CO2 for 3 hr. Cell death levels were examined at […] using a microplate reader.

HepG2 = experiment: Cytotoxicity (CCK-8) of 12-12 G(3); assay type: cell-based
Procedure: as §1

Hep3B = experiment: Cellular internalization of chemically optimized aptamers (FIG. 17A); assay type: cell-based; conditions: combi 1 to combi 5, FIG. 17A
[2] = tested on: hepatoma specific cells expressing high levels of GPC3 (HepG2, Hep3B); experiment: Cellular internalization of combi 6 to combi 10 (FIG. 17B); assay type: cell-based
[3] = Serum stability analysis (urea PAGE); assay type: in vitro ADME, human; conditions: 100% human serum, 37° C., FIG. 28
Procedure: To examine whether 12-12, combi 5 aptamer, combi 4 and combi 5 modified aptamers bound with three or five gemcitabines are stable in the human serum, serum stability was analyzed. In detail, 10 μL of […] was added to 100% human serum, followed by incubation at 37° C. for 0 hr, 1 hr, 3 hr, 6 hr, 12 hr, and 24 hr. After incubation, 5 μL of […] was added, and distilled water was added to a volume of 250 μL. 250 μL of phenol:chloroform:isoamyl alcohol (25:24:1) was added in the equal volume, followed by stirring. Each sample was centrifuged at 16000×g for 10 min. The supernatant was transferred to a new tube, and completely dried. The resultant was diluted with 5× sample buffer and distilled water, and boiled at 95° C. for 5 min, and cooled. The sample was separated by urea PAGE (Polyacrylamide gel Electrophoresis) at 220 V for 25 min, and then stained with SYBR gold and examined using a Gel Doc™ EZ system.

Huh 7 cells = experiment: Cell binding analysis of Cy5-labeled aptamers (FACS); assay type: cell-based; conditions: 25 nM aptamer, 12-10 and truncated aptamers, FIG. 6
Procedure: The 12-10 aptamer and 5 aptamer libraries prepared by truncating the 12-10 aptamer at various lengths [12-10 (40-mer), 12-12 (35-mer), 12-11 (29-mer), 12-13 (24-mer), 12-14 (23-mer), 12-15 (18-mer)] were subjected to cell binding analysis. Each aptamer sequence was labeled with Cy5 at the 5′ end thereof according to the method of Example 1-1. Huh 7 cells (ATCC, Rockville, MD, USA) were seeded at a density of 2×10^6/mL in a 100 mm^2 culture plate, and cultured using a DMEM medium (Gibco, Grand Island, NY, USA) containing 10% FBS (Gibco, Grand Island, NY, USA) and 1% antibiotics (penicillin/streptomycin) under conditions of 5% CO2 and 37° C. 5 μM of the aptamer stock was mixed with 5×SB18 buffer to prepare the aptamer at a concentration of 4 μM, and heated at 95° C. for 5 min, and then cooled at room temperature for 15 min or more. 4 μM of the aptamer was diluted with KRPH buffer (20 mM HEPES, 5 mM KH2PO4, 1 mM MgSO4, 1 mM CaCl2, 136 mM NaCl, 4.7 mM KCl, pH 7.4) at a concentration of 25 nM. The culture medium was removed from the cultured cells, and 4 mL of phosphate-buffered saline (PBS) was added thereto, followed by washing, and then 4 mL of PBS was removed. 4 mL of cold PBS or warm PBS was added, and cells were scraped using a scraper, and collected in tubes, followed by pipetting. The cells were divided and added to fluorescence-activated cell sorting (FAC) tubes according to the number of samples, followed by centrifugation at 4° C. and 2000 rpm for 4 min. After removing the supernatant, each 500 μL of 25 nM aptamer and control (31-08 (40-mer) aptamer) were added to […] of KRPH buffer, followed by pipetting. The tube was covered with foil to block the light, followed by incubation at 4° C. for 30 min. After incubation, centrifugation was performed at 4° C. and 2000 rpm for 4 min, and the supernatant was removed. 2 mL of cold 1×PBS was added, washed, centrifuged at 4° C. and 2000 rpm for 4 min, and the supernatant was removed. This process was repeated three times. […] Cy5 was measured at […]. […]

With “12-12 G(3) (DNA GNGAANGCGNNGAANNANGNSSSNNCAGNCANCAC; three gemcitabines, BzdU and 3' inverted dT, positions not given here)” the “cellular internalization over time” value (Huh-7 cells; 1 hr, 2 hr, and 4 hr after the start of internalization, FIG. 11) was “most excellent cellular internalization”, the cellular internalization (Huh-7 cells; vs 12-12 and scrambled 12-12, FIG. 10) was “most excellent cellular internalization” and the “cell-killing effects on A431” value ([1]; 10 nM to 1 μM, FIG. 12) was “no cell-killing effects”. The “cell-killing effects on A431” value ([1]; 31.75 nM to 2 μM, FIG. 13) was “no cell-killing effects”, the HepG2-killing effects (HepG2; 10 nM to 1 μM, vs 12-12 or 30 nM to 3 μM gemcitabine, FIG. 12) was “excellent HepG2-killing effects” and the HepG2-killing effects (HepG2; 31.75 nM to 2 μM, vs same concentrations of 12-12 or gemcitabine, FIG. 13) was “excellent HepG2-killing effects”.
For “Combi 4: SEQ ID NO: 13, chemically optimized 12-12 aptamer (G_{Me}nG_{Me}A_{F}A_{F}nGCGnnG_{F}A_{F}A_{F}nnA_{F}nGYC_{F}C_{F}C_{F}nnCAG_{Me}nCAnCAMC_{F}; 2'-F and 2'-OMe units, modified bases n, Y, M undefined, 3' idT, as printed in the source, key not given here)”, the Hep3B cellular internalization (Hep3B) was “excellent cellular internalization”.
With “Combi 9: SEQ ID NO: 18, chemically optimized 12-12 aptamer (G_{Me}nG_{Me}A_{F}A_{F}nGCGnnG,A_{F}AnnAnGnC_{F}C_{F}C_{F}nnCAG_{Me}nCAnCrAyCr; 2'-F and 2'-OMe units, modified base n undefined, 3' idT, as printed in the source, key not given here)” the cellular internalization [2] was “highest cellular internalization”.
With “Combi 8: SEQ ID NO: 17, chemically optimized 12-12 aptamer (G_{Me}nG_{Me}A_{F}A_{F}nGCGnnG_{F}A_{F}A_{Me}nnA_{Me}nWnC_{F}C_{F}C_{F}nnCAG_{Me}nCAnC_{F}A_{Me}C_{F}; 2'-F and 2'-OMe units, modified bases n, W undefined, 3' idT, as printed in the source, key not given here)” the cellular internalization [2] was “highest cellular internalization”.
With “12-12: SEQ ID NO: 6, 35-mer truncated from 2428-12-10, idT at 3′ end (GNGAANGCGNNGAANNANGNCCCNNCAGNCANCAC; modified base n undefined, 3' idT per name, further chemistry not given here)” the “half-life in the human serum” value [3] was 6 h, the cellular internalization (Huh-7 cells; 25 nM, truncated aptamers, FIG. 7) was “most excellent cellular internalization” and the cell binding ability (Huh 7 cells) was “most excellent cell binding ability”.
